Measurements: PubChem BioAssay AID210 (DTP/NCI, 2004)
Where “and” joins values, the source holds several entries; their conditions need not be identical. Equal entries are not always repeated. Inconclusive results and toxic doses are left out.

Test system: CD2F1 mice, ip Colon 26 adenocarcinoma, median survival T/C
Test: NCI In Vivo Anticancer Drug Screen. Data for tumor model Colon 26 Adenocarcinoma (intraperitoneal) in CD2F1 (CDF1) mice
Conditions: endpoint: median survival time, higher = longer survival
Experimental: The antitumor activity of compounds was measured in mice bearing transplantable tumors. Survival or tumor size were measured and the results are expressed as the measurement made in the treated group (T) divided by the measurement made in the vehicle treated control group (C). The tumor model used in this assay is Colon 26 Adenocarcinoma (intraperitoneal) in CD2F1 (CDF1) mice

O=C1c2c(O)ccc(O)c2C(=O)c2c(NCCNCCO)ccc(NCCNCCO)c21
T/C (dose: 0.19 mg/kg/injection, schedule: Q01DX009 (ip), vehicle: saline): 216 % of control and 277 % of control | T/C (dose: 0.25 mg/kg/injection, schedule: Q01DX009 (ip), vehicle: acid diluted with saline): 359 % of control | T/C (dose: 0.38 mg/kg/injection, schedule: Q01DX009 (ip), vehicle: saline): 289 % of control and 416 % of control | T/C (dose: 0.39 mg/kg/injection, schedule: Q01DX009 (ip), vehicle: acid diluted with saline): 259 % of control | T/C (dose: 0.39 mg/kg/injection, schedule: Q01DX009 (sc), vehicle: acid diluted with saline): 104 % of control | T/C (dose: 0.5 mg/kg/injection, schedule: Q01DX009 (ip), vehicle: acid diluted with saline): 365 % of control | T/C (dose: 0.65 mg/kg/injection, schedule: Q01DX009 (ip), vehicle: acid diluted with saline): 305 % of control | T/C (dose: 0.65 mg/kg/injection, schedule: Q01DX009 (sc), vehicle: acid diluted with saline): 104 % of control | T/C (dose: 0.75 mg/kg/injection, schedule: Q01DX009 (ip), vehicle: saline): 289 % of control and 416 % of control | T/C (dose: 1.0 mg/kg/injection, schedule: Q01DX009 (ip), vehicle: acid diluted with saline): 365 % of control | T/C (dose: 1.04 mg/kg/injection, schedule: Q04DX003 (ip), vehicle: acid diluted with saline): 386 % of control | T/C (dose: 1.04 mg/kg/injection, schedule: Q04DX003 (iv), vehicle: acid diluted with saline): 116 % of control | T/C (dose: 1.08 mg/kg/injection, schedule: Q01DX009 (ip), vehicle: acid diluted with saline): 353 % of control | T/C (dose: 1.08 mg/kg/injection, schedule: Q01DX009 (sc), vehicle: acid diluted with saline): 112 % of control | T/C (dose: 1.5 mg/kg/injection, schedule: Q01DX009 (ip), vehicle: saline): 109 % of control and 277 % of control | T/C (dose: 1.5 mg/kg/injection, schedule: Q07DX003 (iv), vehicle: acid diluted with saline): 100 % of control | T/C (dose: 1.73 mg/kg/injection, schedule: Q04DX003 (ip), vehicle: acid diluted with saline): 270 % of control | T/C (dose: 1.73 mg/kg/injection, schedule: Q04DX003 (iv), vehicle: acid diluted with saline): 120 % of control | T/C (dose: 1.8 mg/kg/injection, schedule: Q01DX009 (ip), vehicle: acid diluted with saline): 110 % of control | T/C (dose: 2.0 mg/kg/injection, schedule: Q01DX009 (ip), vehicle: acid diluted with saline): 365 % of control | T/C (dose: 2.88 mg/kg/injection, schedule: Q04DX003 (ip), vehicle: acid diluted with saline): 265 % of control | T/C (dose: 3.24 mg/kg/injection, schedule: Q01DX001 (ip), vehicle: acid diluted with saline): 209 % of control | T/C (dose: 3.24 mg/kg/injection, schedule: Q01DX001 (iv), vehicle: acid diluted with saline): 114 % of control | T/C (dose: 4.8 mg/kg/injection, schedule: Q04DX003 (ip), vehicle: acid diluted with saline): 197 % of control | T/C (dose: 5.4 mg/kg/injection, schedule: Q01DX001 (ip), vehicle: acid diluted with saline): 237 % of control | T/C (dose: 5.4 mg/kg/injection, schedule: Q01DX001 (iv), vehicle: acid diluted with saline): 110 % of control | T/C (dose: 6.0 mg/kg/injection, schedule: Q07DX003 (iv), vehicle: acid diluted with saline): 96 % of control | T/C (dose: 9.0 mg/kg/injection, schedule: Q01DX001 (ip), vehicle: acid diluted with saline): 123 % of control | T/C (dose: 9.0 mg/kg/injection, schedule: Q01DX001 (iv), vehicle: acid diluted with saline): 123 % of control

COc1cc([C@@H]2c3cc4c(cc3[C@@H](OC3OC5COC(C)OC5C(O)C3O)[C@H]3COC(=O)[C@H]23)OCO4)cc(OC)c1O (some centres not stated)
T/C (dose: 25.0 mg/kg/injection, schedule: Q03DX002 (ip), vehicle: other): 103 % of control | T/C (dose: 32.0 mg/kg/injection, schedule: Q04DX003 (ip), vehicle: saline): 151 % of control | T/C (dose: 40.0 mg/kg/injection, schedule: Q03DX002 (ip), vehicle: other): 120 % of control | T/C (dose: 60.0 mg/kg/injection, schedule: Q03DX002 (ip), vehicle: other): 107 % of control | T/C (dose: 64.0 mg/kg/injection, schedule: Q04DX003 (ip), vehicle: saline): 193 % of control

COc1cc(NS(C)(=O)=O)ccc1Nc1c2ccccc2nc2ccccc12
T/C (dose: 0.5 mg/kg/injection, schedule: Q04DX002 (ip), vehicle: other): 111 % of control | T/C (dose: 0.5 mg/kg/injection, schedule: Q04DX003 (ip), vehicle: other): 98 % of control | T/C (dose: 1.0 mg/kg/injection, schedule: Q04DX002 (ip), vehicle: other): 119 % of control | T/C (dose: 1.0 mg/kg/injection, schedule: Q04DX003 (ip), vehicle: other): 112 % of control | T/C (dose: 2.0 mg/kg/injection, schedule: Q04DX003 (ip), vehicle: other): 117 % of control | T/C (dose: 4.0 mg/kg/injection, schedule: Q04DX002 (ip), vehicle: other): 151 % of control | T/C (dose: 8.0 mg/kg/injection, schedule: Q04DX002 (ip), vehicle: other): 185 % of control | T/C (dose: 8.0 mg/kg/injection, schedule: Q04DX003 (ip), vehicle: other): 156 % of control | T/C (dose: 16.0 mg/kg/injection, schedule: Q04DX002 (ip), vehicle: other): 240 % of control | T/C (dose: 16.0 mg/kg/injection, schedule: Q04DX003 (ip), vehicle: other): 170 % of control

CCC1(O)CC(OC2CC(N(C)C)C(OC3CC(O)C(OC4CCC(=O)C(C)O4)C(C)O3)C(C)O2)c2c(cc3c(c2O)C(=O)c2c(O)ccc(O)c2C3=O)C1C(=O)OC (configuration not stated)
T/C (dose: 0.38 mg/kg/injection, schedule: Q04DX003 (ip), vehicle: saline with Tween-80): 103 % of control | T/C (dose: 0.75 mg/kg/injection, schedule: Q04DX003 (ip), vehicle: saline with Tween-80): 117 % of control | T/C (dose: 1.5 mg/kg/injection, schedule: Q04DX003 (ip), vehicle: saline with Tween-80): 123 % of control | T/C (dose: 3.0 mg/kg/injection, schedule: Q04DX003 (ip), vehicle: saline with Tween-80): 108 % of control

S=P(N1CC1)(N1CC1)N1CC1
T/C (dose: 1.5 mg/kg/injection, schedule: Q04DX003 (ip), vehicle: saline): 106 % of control | T/C (dose: 3.0 mg/kg/injection, schedule: Q04DX003 (ip), vehicle: saline): 115 % of control | T/C (dose: 12.0 mg/kg/injection, schedule: Q04DX003 (ip), vehicle: saline): 153 % of control

O=c1oc2cc(N=Cc3ccccc3Cl)ccc2c2ccccc12
T/C (dose: 50.0 mg/kg/injection, schedule: Q04DX003 (ip), vehicle: Klucel (hydroxypropylcellulose) (HPC)): 100 % of control | T/C (dose: 100.0 mg/kg/injection, schedule: Q04DX003 (ip), vehicle: Klucel (hydroxypropylcellulose) (HPC)): 97 % of control | T/C (dose: 200.0 mg/kg/injection, schedule: Q04DX003 (ip), vehicle: Klucel (hydroxypropylcellulose) (HPC)): 98 % of control | T/C (dose: 400.0 mg/kg/injection, schedule: Q04DX003 (ip), vehicle: Klucel (hydroxypropylcellulose) (HPC)): 98 % of control

CC[N+](CC)(CC)CC
T/C (dose: 1.56 mg/kg/injection, schedule: Q04DX003 (ip), vehicle: saline with Tween-80): 114 % of control | T/C (dose: 3.12 mg/kg/injection, schedule: Q04DX003 (ip), vehicle: saline with Tween-80): 107 % of control and 113 % of control | T/C (dose: 6.25 mg/kg/injection, schedule: Q04DX003 (ip), vehicle: saline with Tween-80): 111 % of control | T/C (dose: 12.5 mg/kg/injection, schedule: Q04DX003 (ip), vehicle: saline with Tween-80): 175 % of control | T/C (dose: 12.5 mg/kg/injection, schedule: Q04DX003 (oral), vehicle: saline with Tween-80): 109 % of control | T/C (dose: 25.0 mg/kg/injection, schedule: Q04DX003 (oral), vehicle: saline with Tween-80): 105 % of control | T/C (dose: 50.0 mg/kg/injection, schedule: Q04DX003 (oral), vehicle: saline with Tween-80): 104 % of control | T/C (dose: 100.0 mg/kg/injection, schedule: Q04DX003 (oral), vehicle: saline with Tween-80): 94 % of control

O=[N+]([O-])/C=C\c1ccc2c(c1)OCO2
T/C (dose: 3.12 mg/kg/injection, schedule: Q04DX003 (ip), vehicle: Klucel (hydroxypropylcellulose) (HPC)): 87 % of control | T/C (dose: 6.25 mg/kg/injection, schedule: Q04DX003 (ip), vehicle: Klucel (hydroxypropylcellulose) (HPC)): 105 % of control | T/C (dose: 25.0 mg/kg/injection, schedule: Q04DX003 (ip), vehicle: Klucel (hydroxypropylcellulose) (HPC)): 90 % of control

Cc1c2oc3c(C)c([N+](=O)[O-])cc(C(=O)NC4C(=O)NC(C(C)C)C(=O)N5CCCC5C(=O)N(C)CC(=O)N(C)C(C(C)C)C(=O)OC4C)c3nc-2c(C(=O)NC2C(=O)NC(C(C)C)C(=O)N3CCCC3C(=O)N(C)CC(=O)N(C)C(C(C)C)C(=O)OC2C)c(N)c1=O (configuration not stated)
T/C (dose: 500.0 micrograms/kg/injection, schedule: Q01DX001 (ip), vehicle: saline + alcohol): 112 % of control
